US20090270342A1, “IMMUNOREGULATORY AGENT” (priority 2006, published 2009)

System: anti-OVA-IgE, IgG1, IgG2a in serum
Assay: Induction of anti-OVA antibodies by third OVA sensitization in already sensitive mice (Experiment 7)
Format: in vivo
Details: for Anti-OVA-IgE in serum / Anti-OVA-IgG1 in serum / Anti-OVA-IgG2a in serum: two weeks after third sensitization of OVA-sensitive mice; for Anti-OVA-IgE in serum, relative to control / Anti-OVA-IgG1 in serum, relative to control / Anti-OVA-IgG2a in serum, relative to control: after third sensitization
Experimental: In order to investigate the effect of lactosucorse on systemic immunity, antibody level in serum was measured. Similarly as in Experiment 1, female BALB/c mice (six weeks old) were preliminary reared for one week on “AIN-93G”, the same standard purified diet as used in Experiment 1. Successively, “NYU-KA OLIGO 700”, a saccharide composition comprising 71.4% (w/w), on a dry solid basis, of lactosucrose commercialized by Hayashibara Shoji Inc., Okayama, Japan, was incorporated into the above purified diet, in which corn starch equal to the amount of the saccharide composition comprising lactosucrose had been removed, to give a lactosucrose content of 2% (w/w) or 5% (w/w), and five to seven mice/group were allowed to ingest the resulting test diet freely. Mice, allowed to ingest “AIN-93G”, as the standard purified diet, were used as control. At 10 days after from starting the administration of the test diet, mice were sensitized to antigen by administrating 20 μg of ovalbumin (OVA) (grade V, commercialized by Sigma Corporation) as antigen and 4.5 mg of “IMJECT®”, alum commercialized by Pierce ThermoScientific as adjuvant, into the peritoneal cavity. Successively, 15 days after from the first sensitization, the second sensitization was carried out by the same procedure. The blood was collected from caudal vein of mice at one, two, and three weeks after from the second sensitization, the serum was collected by centrifugation, and the amount of IgE to OVA was measured by EIA. In the cases of IgG1 and IgG2a, the amount of antibody was measured using serum collected at two weeks after from the second sensitization. The IgE and IgG2a titers were measured by capture EIA and IgG1 titer was measured by indirect EIA. Each titer was calculated by calibration curve prepared by using anti-OVA mouse serum (IgE: 1.760 U/ml, IgG1: 128,000 U/ml, IgG2a: 7,040 u/ml) as a standard serum. The amounts of IgE at one, two, or three weeks after from the second sensitization are in Table 5, and the amounts of IgG1 and IgG2a of two weeks after from the second sensitization are in Table 6. The percentages in parentheses in tables mean a relative value to the antibody concentration in serum of the control mice.
Considering the application of lactosucrose to allergic patients, mice which had been made sensitive to OVA by sensitizing with OVA were prepared and the suppressing effect of lactosucrose on the production of anti-OVA-IgE when exposed to OVA was investigated by allowing the above mice to ingest lactosucrose. Female BALB/c mice (six weeks old, five mice/group) were preliminary reared for one week on “AIN-93G”, the same standard purified diet as used in Experiment 1. Successively, similarly as in Experiment 4, 20 μg of OVA, and 4.5 mg of alum were administrated to the peritoneal cavity of the mice and further reared for two weeks on the above standard diet. Then, the second sensitization of OVA and alum was carried out by the same procedure as used in the first sensitization. After two weeks, the mice were reared for further six weeks on the test diet comprising 2% (w/w) or 5% (w/w) lactosucrose, used in Experiment 1. After checking the mice being sensitive to OVA by measuring the amount of IgE, OVA and alum were administrated to them by the same procedure as used in the first and second sensitizations. After rearing two weeks on the test diet, blood was collected from respective mice and the concentrations of anti-OVA-IgE, anti-OVA-IgG1, and anti-OVA-IgG2a were determined by the same method as used in Experiment 4.

[1] = Lactosucrose 5% (w/w), listed as lactosucrose

## OC[C@H]1O[C@@H](O[C@H]2[C@H](O)[C@@H](O)[C@@H](O[C@]3(CO)O[C@H](CO)[C@@H](O)[C@@H]3O)O[C@@H]2CO)[C@H](O)[C@@H](O)[C@H]1O [Lactosucrose, β-D-galactosyl-(1,4)-α-D-glucosyl-(1,2)-β-D-fructoside]
Lactosucrose 2% (w/w) diet
  Anti-OVA-IgE in serum: 1,450 ± 561 U/ml
  Anti-OVA-IgG1 in serum: 678 ± 176 ×10^4 U/ml
  Anti-OVA-IgG2a in serum: 12.4 ± 5.02 ×10^4 U/ml
Lactosucrose 2% (w/w)
  Anti-OVA-IgE in serum, relative to control: (72%)
  Anti-OVA-IgG1 in serum, relative to control: (111%)
  Anti-OVA-IgG2a in serum, relative to control: (120%)
Lactosucrose 2% (w/w), listed as lactosucrose
  Anti-OVA-IgE in serum, relative to control: 72%
Lactosucrose 5% (w/w) diet
  Anti-OVA-IgE in serum: 1,250 ± 264 U/ml
  Anti-OVA-IgG1 in serum: 365 ± 35.1 ×10^4 U/ml
  Anti-OVA-IgG2a in serum: 5.77 ± 1.93 ×10^4 U/ml
Lactosucrose 5% (w/w)
  Anti-OVA-IgE in serum, relative to control: (62%)
  Anti-OVA-IgG1 in serum, relative to control: (60%)
  Anti-OVA-IgG2a in serum, relative to control: (56%)
[1]
  Anti-OVA-IgE in serum, relative to control: 62%
  Anti-OVA-IgG1 in serum, relative to control: about 50%
  Anti-OVA-IgG2a in serum, relative to control: about 50%
